Legend:
Assay in all cases: relative viability (nuclei count vs DMSO), 5 days (fraction); higher = more cells survive
VE-821 + Pemetrexed = compound: CS(=O)(=O)c1ccc(-c2cnc(N)c(C(=O)Nc3ccccc3)n2)cc1 [VE-821] + Nc1nc2[nH]cc(CCc3ccc(C(=O)N[C@@H](CCC(=O)O)C(=O)O)cc3)c2c(=O)[nH]1 [Pemetrexed] (partner 0.2 µM)
Procedure, shortened: (§1)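 Nuclei were stained with Hoechst during a one-step fixation (final 0.05% Triton X-100, 1% formaldehyde, 1 ug/ml Hoechst) carried out 5 days after dosing, then counted on 4× images. The cells, lung cancer lines in 1536-well plates, had been dosed by pin tool the day after seeding with one drug alone or a fixed anchor-drug dose plus five library-drug doses (not always all listed) in √10 steps. Relative viability is the nuclei count in treated wells divided by that in vehicle wells, and each value is the median of duplicate plates.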

Vismodegib + Dasatinib = compound: CS(=O)(=O)c1ccc(C(=O)Nc2ccc(Cl)c(-c3ccccn3)c2)c(Cl)c1 [Vismodegib] + Cc1nc(Nc2ncc(C(=O)Nc3c(C)cccc3Cl)s2)cc(N2CCN(CCO)CC2)n1 [Dasatinib] (partner 0.075 µM)
Procedure, shortened: as §1

Ruxolitinib + OSI-027 = compound: N#CC[C@H](C1CCCC1)n1cc(-c2ncnc3[nH]ccc23)cn1 [Ruxolitinib] + COc1cccc2cc(-c3nc([C@H]4CC[C@H](C(=O)O)CC4)n4ncnc(N)c34)[nH]c12 [OSI-027] (partner 0.5 µM)
Procedure, shortened: as §1

VE-821 + Vorinostat = compound: CS(=O)(=O)c1ccc(-c2cnc(N)c(C(=O)Nc3ccccc3)n2)cc1 [VE-821] + O=C(CCCCCCC(=O)Nc1ccccc1)NO [Vorinostat] (partner 1 µM)
Procedure, shortened: as §1

UMC-11
relative viability (VE-821 + Pemetrexed; first compound 0.08 µM): 0.818 | relative viability (VE-821 + Pemetrexed; first compound 0.253 µM): 0.718 | relative viability (VE-821 + Pemetrexed; first compound 0.8 µM): 0.728 | relative viability (VE-821 + Pemetrexed; first compound 2.53 µM): 0.513 | relative viability (VE-821 + Pemetrexed; first compound 8 µM): 0.266 | relative viability (Vismodegib + Dasatinib; first compound 0.08 µM): 0.434 | relative viability (Vismodegib + Dasatinib; first compound 0.253 µM): 0.471 | relative viability (Vismodegib + Dasatinib; first compound 0.8 µM): 0.423 | relative viability (Vismodegib + Dasatinib; first compound 2.53 µM): 0.444 | relative viability (Vismodegib + Dasatinib; first compound 8 µM): 0.418 | relative viability (Ruxolitinib + OSI-027; first compound 0.08 µM): 0.474 | relative viability (Ruxolitinib + OSI-027; first compound 0.253 µM): 0.448 | relative viability (Ruxolitinib + OSI-027; first compound 0.8 µM): 0.561 | relative viability (Ruxolitinib + OSI-027; first compound 2.53 µM): 0.498 | relative viability (Ruxolitinib + OSI-027; first compound 8 µM): 0.574 | relative viability (VE-821 + Vorinostat; first compound 0.08 µM): 0.335 | relative viability (VE-821 + Vorinostat; first compound 0.253 µM): 0.373 | relative viability (VE-821 + Vorinostat; first compound 0.8 µM): 0.386 | relative viability (VE-821 + Vorinostat; first compound 2.53 µM): 0.297 | relative viability (VE-821 + Vorinostat; first compound 8 µM): 0.202

From the supplement of paper PMC10307832
